From PubChem BioAssay (NCI)
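Dose response: 5 concentrations. Exposure: 48 h. Format: 96-well plates. Endpoint: linear interpolation; highest concentration if not reached. Definition used: TGI = concentration required for complete inhibition of growth.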

How the values were obtained:
Experiment in all cases: DTP human tumour cell line panel, 48 h
HOP-92 NSCLC = system: HOP-92 NSCLC
NCI/ADR-RES ovarian = system: NCI/ADR-RES ovarian
MDA-MB-231 breast = system: MDA-MB-231 breast
COLO 205 colon = system: COLO 205 colon
SK-MEL-28 melanoma = system: SK-MEL-28 melanoma
SR leukemia = system: SR leukemia
HS 578T breast = system: HS 578T breast
T-47D breast = system: T-47D breast
DU-145 prostate = system: DU-145 prostate
CCRF-CEM leukemia = system: CCRF-CEM leukemia
UACC-62 melanoma = system: UACC-62 melanoma
SK-MEL-5 melanoma = system: SK-MEL-5 melanoma
HCT-15 colon = system: HCT-15 colon
UO-31 renal = system: UO-31 renal
K-562 leukemia = system: K-562 leukemia
LOX IMVI melanoma = system: LOX IMVI melanoma
SN12C renal = system: SN12C renal
MDA-MB-435 = system: MDA-MB-435
OVCAR-4 ovarian = system: OVCAR-4 ovarian
SF-268 CNS = system: SF-268 CNS
UACC-257 melanoma = system: UACC-257 melanoma
OVCAR-8 ovarian = system: OVCAR-8 ovarian
U251 CNS = system: U251 CNS
RPMI-8226 leukemia = system: RPMI-8226 leukemia
SNB-75 CNS = system: SNB-75 CNS
HCT-116 colon = system: HCT-116 colon
NCI-H23 lung = system: NCI-H23 lung
NCI-H460 lung = system: NCI-H460 lung
IGROV1 ovarian = system: IGROV1 ovarian
HT29 colon = system: HT29 colon
M14 melanoma = system: M14 melanoma
SW-620 colon = system: SW-620 colon
RXF 393 renal = system: RXF 393 renal
MALME-3M melanoma = system: MALME-3M melanoma
MOLT-4 leukemia = system: MOLT-4 leukemia
TK-10 renal = system: TK-10 renal
SK-OV-3 ovarian = system: SK-OV-3 ovarian
HL-60(TB) leukemia = system: HL-60(TB) leukemia
MCF7 breast = system: MCF7 breast
SF-295 CNS = system: SF-295 CNS
KM12 colon = system: KM12 colon
EKVX NSCLC = system: EKVX NSCLC
OVCAR-5 ovarian = system: OVCAR-5 ovarian
OVCAR-3 ovarian = system: OVCAR-3 ovarian
ACHN renal = system: ACHN renal
SNB-19 CNS = system: SNB-19 CNS
NCI-H226 lung = system: NCI-H226 lung
HOP-62 NSCLC = system: HOP-62 NSCLC

Compound `CCN1CCC(O)(c2ccc(O)cc2)C(C(=O)c2ccc(O)cc2)C1` (stereo not drawn) has a TGI (HOP-92 NSCLC) of 37.5 µM, a TGI (NCI/ADR-RES ovarian) of 71 µM and a TGI (MDA-MB-231 breast) of 31.1 µM. For the same compound, the TGI (COLO 205 colon) was 37.9 µM, the TGI (SK-MEL-28 melanoma) was 31.7 µM and the TGI (SR leukemia) was 43.4 µM. For the same compound, the TGI (HS 578T breast) was greater than 100 µM, the TGI (T-47D breast) was 32.9 µM and the TGI (DU-145 prostate) was 60 µM. For the same compound, the TGI (CCRF-CEM leukemia) was 30 µM, the TGI (UACC-62 melanoma) was 30.9 µM and the TGI (SK-MEL-5 melanoma) was 22.7 µM. It also gave a TGI (HCT-15 colon) of 32.1 µM, a TGI (UO-31 renal) of 36 µM and a TGI (K-562 leukemia) of 33.8 µM. For the same compound, the TGI (LOX IMVI melanoma) was 27.4 µM, the TGI (SN12C renal) was 42 µM and the TGI (MDA-MB-435) was 33.3 µM. It also gave a TGI (OVCAR-4 ovarian) of 68.8 µM, a TGI (SF-268 CNS) greater than 100 µM and a TGI (UACC-257 melanoma) of 32.4 µM. For the same compound, the TGI (OVCAR-8 ovarian) was greater than 100 µM, the TGI (U251 CNS) was greater than 100 µM and the TGI (RPMI-8226 leukemia) was 33.4 µM. The TGI (SNB-75 CNS) was 60.1 µM, the TGI (HCT-116 colon) was 54.9 µM and the TGI (NCI-H23 lung) was 44.4 µM. The TGI (NCI-H460 lung) was greater than 100 µM, the TGI (IGROV1 ovarian) was 44 µM and the TGI (HT29 colon) was 64.9 µM. The TGI (M14 melanoma) was 36.4 µM, the TGI (SW-620 colon) was 12.3 µM and the TGI (RXF 393 renal) was 30.7 µM. For the same compound, the TGI (MALME-3M melanoma) was 38.8 µM, the TGI (MOLT-4 leukemia) was 46 µM and the TGI (TK-10 renal) was 31.5 µM. For the same compound, the TGI (SK-OV-3 ovarian) was greater than 100 µM, the TGI (HL-60(TB) leukemia) was greater than 100 µM and the TGI (MCF7 breast) was 10.9 µM. The TGI (SF-295 CNS) was greater than 100 µM, the TGI (KM12 colon) was 45.4 µM and the TGI (EKVX NSCLC) was 51.1 µM. The TGI (OVCAR-5 ovarian) was 35.6 µM, the TGI (OVCAR-3 ovarian) was 32.8 µM and the TGI (ACHN renal) was 34 µM. The TGI (SNB-19 CNS) was greater than 100 µM, the TGI (NCI-H226 lung) was 61.9 µM and the TGI (HOP-62 NSCLC) was greater than 100 µM.
